Experimental data from patent US20180200257A1, “METHODS FOR THE TREATMENT OF INFLAMMATORY DISORDERS” (Galapagos NV, priority 2015, published 2018).

Test system: Subjects With Active Crohn's Disease With Evidence of Mucosal Ulceration
Assay: Study 3 - Histopathology score
Type: in vivo, human
Conditions: 200 mg, LOCF
Text: Double-Blind, Randomized, Placebo-Controlled, Multi-Centre Study to Investigate the Efficacy and Safety of Compound 1 in Subjects With Active Crohn's Disease With Evidence of Mucosal Ulceration.
This is a double-blind, randomized, placebo-controlled, multi-centre Phase 2 study to investigate the efficacy and safety of Compound 1 administered once daily for the treatment of active CD with evidence of mucosal ulceration. The pharmacokinetics (including a PK substudy) and pharmacodynamics of Compound 1 and metabolite in CD will also be characterised.
A total of 180 eligible subjects will be randomized to receive Compound 1 or placebo in addition to their stable background treatment (eg, corticosteroids, aminosalicylates, or CD-related antibiotics). The study will consist of 2 parts, with total treatment duration of 20 weeks. Randomization in Part 1 will be stratified according the subject's previous anti-TNF exposure/response, CRP level at Screening, and oral corticosteroid use at visit Day −1.
After the first 10 weeks of treatment in Part 1, patients will be re-randomized for Part 2 as shown in the diagram below and will be stratified according to the subject's clinical response, previous anti-TNF exposure/response, and oral corticosteroid use at visit Day -1.
Histopathology data is collected from patients biopsy, and evaluated according to the procedure reported in D'haens et al., 1998.

[1] = Anti-TNF experienced non-responders
[2] = baseline corticosteroid use: with steroids
[3] = baseline corticosteroid use: without steroids

## O=C(Nc1nc2cccc(-c3ccc(CN4CCS(=O)(=O)CC4)cc3)n2n1)C1CC1 [Compound 1, cyclopropanecarboxylic acid {5-[4-(1,1-dioxo-thiomorpholin-4-ylmethyl)-phenyl]-[1,2,4]triazolo[1,5-a]pyridin-2-yl}-amide]
Anti-TNF Naïve
  Overall total score mean, % CFB at week 10: −14%
  Overall total score mean, CFB at week 10: −3.9
  Overall total score mean, baseline: 20.3
  Overall total score mean, week 10: 16.1
[1]
  Overall total score mean, % CFB at week 10: −7%
  Overall total score mean, CFB at week 10: −3.2
  Overall total score mean, baseline: 25.0
  Overall total score mean, week 10: 21.6
[2]
  Overall total score mean, % CFB at week 10: −15%
  Overall total score mean, CFB at week 10: −4.3
  Overall total score mean, baseline: 24.9
  Overall total score mean, week 10: 20.3
[3]
  Overall total score mean, % CFB at week 10: −5%
  Overall total score mean, CFB at week 10: −2.7
  Overall total score mean, baseline: 20.7
  Overall total score mean, week 10: 17.9
overall
  Overall total score mean, % CFB at week 10: −10%
  Overall total score mean, CFB at week 10: −3.5
  Overall total score mean, baseline: 22.8
  Overall total score mean, week 10: 19.1
Screening CRP ≤ 10 ml/L
  Overall total score mean, % CFB at week 10: −20%
  Overall total score mean, CFB at week 10: −4.8
  Overall total score mean, baseline: 21.8
  Overall total score mean, week 10: 17.1
Screening CRP ≥ 10 mg/L
  Overall total score mean, % CFB at week 10: 4%
  Overall total score mean, CFB at week 10: −1.8
  Overall total score mean, baseline: 24.3
  Overall total score mean, week 10: 21.8
